The record followed here is patent US20080255232A1, “Naphthyl Derivatives as Inhibitors of Beta-Amyloid Aggregation” (SIGMA-TAU INDUSTRIE FARMACEUTICHE RIUNITE S.P.A., priority 2005, published 2008).

One data set addresses T1, peptide βA1-42 (Homo sapiens, UniProt P05067).
T1 construct: The β-A(1-42) was dissolved in a mixture of Acetonitrile and distilled water
As to the kind of experiment: Anti-aggregating activity on peptide βA1-42, thioflavin T fluorescence. Format: biochemical. To be noted: thioflavin T binding, aggregate + non aggregate β-A(1-42), 37° C., 24 hours; read-out: IC50 (dose reducing the aggregate formation of the 50%). The method, then:
The anti-aggregating activity of the compound of formula (I) on the peptide βA1-42 is carried out via the binding of the thioflavin T according to the following procedure.
The β-A(1-42) was dissolved in a mixture of Acetonitrile and distilled water (CH3CN/H2O 1:1) to the final concentration of 1 mg/mL. The solution was divided in aliquots of 2 mL and stored at −80° C. until the use. The work solution was prepared diluting the stock solution five times with H2O (final concentration 44 μmol/L).
The β-A(1-42) was dissolved in a mixture of Acetonitrile and distilled water (CH3CN/H2O 1:1) to the final concentration of 1 mg/mL. An aliquot of 2 mL was freeze-dried to eliminate the trifluoroacetic acid residual of the peptide synthesis. The β-A(1-42) peptide was subsequently dissolved in 0.1 mL of DMSO and 5.0 mL of 2×PBS, pH 7.4. Once dissolved the β-A(1-42) was incubated to 37° C. for 8 days, at the end, after sonication, it was diluted five times with 2×PBS (final concentration 17.4 μmol/L). Waiting to be used, the aggregate β-A(1-42) was divided in aliquots and stored at −80° C.
Fluorescence Measurement with Thioflavin T
Scheme of added volumes in 96-well plates:
The assay was performed in triplicate in 96-well plates as reported above in scheme. Test compounds were added in the wells containing the aggregate β-A(1-42) then, 15 after minutes, the non-aggregate β-A(1-42) was added. The 96-well plates were incubated at 37° C. under agitation for 24 hours.
The following day, a volume of 200 μL of a solution containing 10 μmol/L thioflavin T and 50 μmol/L Na2HPO4 pH 6.5 was added to each well. Fluorescence was measured in a VICTOR 2 (WALLAC) fluorescence spectrophotometer (λex=450 nm, λem=486 nm) (Findelis M. A et al).
The data were expressed as percent of residual aggregated β-A and, when possible, the dose reducing the aggregate formation of the 50% (IC50) was estimate.
The % of aggregation was determinated by the following formula:
(βAmyloid+Test compound)−(Blank+Test compound)×100

Data set [1] is described as follows: Blood brain barrier crossing: plasma and brain concentrations after s.c. injection. As to conditions: mice, s.c. 25 mg/kg. Format: in vivo. As for the experimental part:
In order to obtain basic information on the concentration achieved in brain of rodents after parental doses and their relationship with plasma concentrations, mice and rats were used. […] Compounds were determined in plasma by high-performance liquid chromatography (HPLC) after a solid liquid extraction procedure. Briefly, Oasis HLB 1 cc cartridges were pre-wetted with methanol and distilled water. Then internal standard, mouse plasma or rat plasma were added and the cartridges were washed with mater-methanoland methanol, interrupting the vacuum before the column was completely dry after each passage. The compound was removed by eluiting the cartridges with methanol and evaporated to dryness under nitrogen. The residue was dissolved in the mobile phase centrifuged and analyzed by HPLC with UV detection (224 nm).
Separation was done on a pBondapack C18 column protected by a LiChrosphere RP-8 pre-column at room temperature. The mobile phase was CH3CN:CH3OH:0.001M KH2PO4 (40:10:50 v/v) delivered at a flow rate of 1.2 mL/min.
Brain tissue was homogenized (1 g/10 ml) in CH3CN:0.001M phosphate buffer, pH 7.4 and a volume containing approximately 100 mg of tissue was centrifuged. The supernatant was processed as for plasma.
Mean brain and plasma area under the concentration-time curve (AUCt) were determined using the linear trapezoidal rule and extrapolated to infinity (AUC) by the concentration method. The elimination rate constant was calculated by least squares regression analysis of the terminal log-linear portion of the plasma and the brain drug concentration curves. The maximum concentration (Cmax) and the time (tmax) of its occurrence were read directly from the plasma and brain concentration time data.

Counter-ions that a name gives are not always drawn. Like-named read-outs stand apart in the source and are kept apart here.

T1 sequence (P05067 672-713): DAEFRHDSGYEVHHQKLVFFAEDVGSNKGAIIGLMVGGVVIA

As for `COc1ccc(Nc2ccccc2)c2ccccc12` [ST2173, 4-methoxy-N-phenyl-1-naphthalenamine], the melting point (as a rule, the temperature, or range, at which the solid turns liquid) fell in the range of 141 to 143 °C.
Compound `COC(=O)c1ccc(Nc2ccc(O)c3ccccc23)cc1` [ST2178, methyl 4-[(4-hydroxy-1-naphthyl)amino]benzoate] registered a melting point of 188 to 190 °C. Moreover, the IC50 (as a rule, the concentration that gives 50% inhibition) at peptide βA1-42 turned out to be 5.13 µM.
For `COc1ccc2ccccc2c1Nc1c(OC)ccc2ccccc12` [ST2761, 2-methoxy-N-(2-methoxy-1-naphthyl)naphthalen-1-amine], the IC50 on peptide βA1-42 was determined as 5.7 µM.
The compound `COc1ccc(Nc2ccc(OC)c3ccccc23)cc1C(=O)O` [ST2174, 2-methoxy-5-[(4-methoxy-1-naphthyl)amino]benzoic acid] registered a melting point of 153 to 154 °C.
Consider `O=C(O)c1ccc(Nc2ccc3ccccc3c2O)cc1` [ST3459, 4-[(1-hydroxy-2-naphthyl)amino]benzoic acid], for which the half-inhibitory concentration (IC50) on peptide βA1-42 came to 2.6 µM.
Turning to `Oc1c(Nc2ccccc2)ccc2ccccc12` [ST2762, 1-hydroxy-N-phenylnaphthalen-2-aminiumchloride], the IC50 at peptide βA1-42 is 2.4 µM.
Consider `COc1ccccc1Nc1ccc(OC)c2ccccc12` [ST2879, N-(4-methoxy-1-naphthyl)-N-(2-methoxyphenyl)amine], for which the melting point was 108 to 110 °C.
For `Oc1ccc(Nc2ccccc2)c2ccccc12` [ST2176, 4-anilino-1-naphthol], the IC50 at peptide βA1-42 was found to be 5.43 µM.
As for `Oc1ccc(Sc2ccc(O)c3ccccc23)cc1` [ST3501, 4-[(4-hydroxyphenyl)thio]-1-naphthol], on peptide βA1-42, the concentration for half-maximal inhibition (IC50) stood at 7.2 µM.
As to `O=C(O)c1ccccc1Nc1c(O)ccc2ccccc12` [ST2757, 2-[(2-hydroxy-1-naphthyl)amino]benzoic acid], on peptide βA1-42, the half-inhibitory concentration (IC50) was 14.1 µM.
Still for that read-out and setting: then `Oc1ccc2ccccc2c1Cc1c(O)ccc2ccccc12` [ST1859, 1-[(2-hydroxy-1-naphthyl)methyl]-2-naphthol, reference compound], with 23.5 µM.
With `COc1ccc(Nc2ccc(OC)c3ccccc23)cc1` [ST2175, 4-methoxy-N-(4-methoxyphenyl)-1-naphthalenamine], the IC50 on peptide βA1-42 came out at 5.59 µM. In addition, the “Cmax, Brain” value in data set [1] (brain) is recorded as 410 ng/mL or L. Moreover, the “AUCt, Brain” value in data set [1] (brain, linear trapezoidal rule) was 1643 ng/L · h or g. In addition, the Kp at 0.25 h in data set [1] (mouse, brain, sc, 25 mg/kg, 15 min, read-out: Brain to Plasma ratio) is 2.3. Moreover, the Kp at 0.5 h in data set [1] (mouse, brain, sc, 25 mg/kg, 30 min, read-out: Brain to Plasma ratio) came out at 3.6. Also, in data set [1] (mouse, brain, sc, 25 mg/kg, 60 min, read-out: Brain to Plasma ratio), the Kp at 1 h is 2.5. The Kp at 2 h in data set [1] (mouse, brain, sc, 25 mg/kg, 120 min, read-out: Brain to Plasma ratio) came to 2. The Kp at 3 h in data set [1] (mouse, brain, sc, 25 mg/kg, 180 min, read-out: Brain to Plasma ratio) came to 1.8. In addition, in data set [1] (mouse, brain, sc, 25 mg/kg, 240 min, read-out: Brain to Plasma ratio), the Kp at 4 h worked out at 1.3. For the same compound, the Kp at 6 h in data set [1] (mouse, brain, sc, 25 mg/kg, 360 min, read-out: Brain to Plasma ratio) was 1.7. For the same compound, the Kp in data set [1] (mouse, brain, sc, 25 mg/kg, read-out: AUCt, Brain to Plasma ratio) is 1.9; in data set [1] (mouse, brain, sc, 25 mg/kg, read-out: Cmax, Brain to Plasma ratio), 2.5. Further, the concentration at 15 min was 321 ± 130 ng/g in data set [1] (mouse, brain, sc, 15 min, read-out: Brain (mean ± SD)) and 138 ng/mL in data set [1] (mouse, plasma, sc, 15 min, read-out: Plasma (mean ± SD)). Also, the concentration at 30 min in data set [1] (mouse, brain, sc, 30 min, read-out: Brain (mean ± SD)) amounted to 398 ± 269 ng/g; in data set [1] (mouse, plasma, sc, 30 min, read-out: Plasma (mean ± SD)), 109 ng/mL. In addition, the concentration at 60 min in data set [1] (mouse, brain, sc, 60 min, read-out: Brain (mean ± SD)) was determined as 410 ± 192 ng/g; in data set [1] (mouse, plasma, sc, 60 min, read-out: Plasma (mean ± SD)), 164 ± 18 ng/mL. Further, the concentration at 120 min was determined as 289 ± 61 ng/g in data set [1] (mouse, brain, sc, 120 min, read-out: Brain (mean ± SD)) and 142 ± 16 ng/mL in data set [1] (mouse, plasma, sc, 120 min, read-out: Plasma (mean ± SD)). In addition, the concentration at 180 min amounted to 253 ± 77 ng/g in data set [1] (mouse, brain, sc, 180 min, read-out: Brain (mean ± SD)) and 139 ± 31 ng/mL in data set [1] (mouse, plasma, sc, 180 min, read-out: Plasma (mean ± SD)). The concentration at 240 min worked out at 220 ± 61 ng/g in data set [1] (mouse, brain, sc, 240 min, read-out: Brain (mean ± SD)) and 159 ± 38 ng/mL in data set [1] (mouse, plasma, sc, 240 min, read-out: Plasma (mean ± SD)). Moreover, the concentration at 360 min in data set [1] (mouse, brain, sc, 360 min, read-out: Brain (mean ± SD)) was found to be 232 ± 94 ng/g; in data set [1] (mouse, plasma, sc, 360 min, read-out: Plasma (mean ± SD)), 130 ± 13 ng/mL. Also, the Tmax (commonly the time from dosing to the highest level) in data set [1] (mouse, sc, brain, read-out: tmax, Brain (converted)) is 1 h; in data set [1] (mouse, sc, plasma, read-out: tmax, Plasma (converted)), 1 h. Besides, in data set [1] (mouse, sc, plasma), the highest level (Cmax) was 164 ng/mL. In addition, the AUC(0-t) in data set [1] (mouse, sc, plasma, linear trapezoidal rule, read-out: AUCt, Plasma) was 850 ng·h/mL.
Regarding `COc1ccc(Nc2ccc([N+](=O)[O-])c3ccccc23)cc1` [ST3451, N-(4-methoxyphenyl)-4-nitronaphthalen-1-amine], the IC50 on peptide βA1-42 was determined as 2.7 µM.
On the same count and under the same terms, next, `CSc1ccc(Nc2ccc(N(C)C)c3ccccc23)cc1` [ST3458, N,N-dimethyl-N′-[4-(methylthio)phenyl]naphthalene-1,4-diamine dihydrochloride]: 2.2 µM.
The same measure, in the same setting: next, `Oc1ccc(Nc2ccc(O)c3ccccc23)cc1` [ST2177, 4-(4-hydroxyanilino)-1-naphthol]: 1 µM.
